The values that follow are results of earlier work, collected in patent EP0398588A1, “Macrolide antibiotics” (ELI LILLY AND COMPANY, priority 1989, dated 1990).

The structures appear in SMILES notation.

The subject of the data set is rats. To be noted: rat, in vivo, po.

For the compound `O=C1C[C@@H]2OCC=C3CN4CC[C@]56c7ccccc7N1[C@H]5[C@H]2[C@H]3C[C@H]46` [strychnine], the MLD is 5 mg/kg.
